Consider 18 compounds from patent US8338594B2, “Pyrrolotriazine derivatives useful for treating cancer through inhibition of aurora kinase” (Bayer HealthCare LLC, priority 2005, dated 2012).

In experiment [1] the target is T1, murine Aurora Kinase 1 (mAur1) (Mus musculus, UniProt O70126).
T1 construct: recombinant, GST-tagged mAur 1 (amino acids 67-345) that was co-expressed with human INCENP; GST; made in house
The experiment in a line: murine Aurora Kinase 1 (mAur1) biochemical Scintillation Proximity Assay. The note with it: SPA, biotinylated Peptide 830, 1 μM ATP, 12 nM GST-tagged mAur 1 co-expressed with human INCENP. The protocol: (§1) Using a Scintillation Proximity Assay (SPA) format, the murine Aurora Kinase 1 (mAur1) and murine Aurora Kinase 2 (mAur2) biochemical assay measures the ability of mAur2 to phosphorylate the substrate, biotinylated Peptide 830 (DRT, Protein Sciences). Once radiolabeled by the enzyme, the biotinylated substrate is captured on streptavidin-coated SPA beads and the radioactivity, in proximity to the SPA beads, is measured. For the generation of IC50 curves, the reaction was performed in 96-well isoplates (Wallac 1450-514) under the following conditions: a 10 mM stock solution of compound (in 100% dimethylsulfoxide; DMSO) was diluted 10 fold in 100% DMSO. Compounds were then serially diluted, 1:5, for an eight point dose curve, in 100% DMSO. A volume of 1 μL of the diluted compound was added to the reaction buffer that consisted of 25 mM HEPES pH 7.5, 1 mM MnCl2, 1 mM MgCl2, 1 mM DTT, 0.01% Tween20. A mixture with a final concentration per well of 1 μM cold ATP, 0.1 μCi ^33P-ATP (Amersham AH9968) and 1 μM biotinylated Peptide 830 was then added. The reaction was initiated with the addition of either recombinant, GST-tagged mAur 1 (amino acids 67-345) that was co-expressed with human INCENP (amino acids 704-919) (DRT, Protein Sciences) at a final concentration of 12 nM or N-terminal His-tagged mAur2 (amino acids 98-395; DRT, Protein Sciences) at a final concentration of 20 nM. The final reaction volume in each well was 100 μL and the final compound concentration ranged from 10 μM-[…] in 1% DMSO. The reaction mixture was allowed to incubate for 1-2 hours with gentle agitation at 25° C. To terminate the reaction, streptavidin-coated SPA beads (Amersham RPNQ0007; 50 μL of 0.5 mg beads dissolved in 165 mM EDTA) were then added to each well and incubation proceeded for an additional 15 minutes at 25° C. The plate was then centrifuged for ten minutes at 2000 rpm. Phosphorylation of the peptide substrate was measured using a Wallac 1450 Microbeta Plus Liquid Scintillation Counter.
(In a scintillation proximity assay essentially only radioactivity close to the scintillant gives light.)

The target in experiment [2] is T2, murine Aurora Kinase 2 (mAur2) (Mus musculus, UniProt P97477).
T2 construct: N-terminal His-tagged mAur2 (amino acids 98-395; DRT, Protein Sciences); His (N); made in house
T2 sequence (P97477 98-395): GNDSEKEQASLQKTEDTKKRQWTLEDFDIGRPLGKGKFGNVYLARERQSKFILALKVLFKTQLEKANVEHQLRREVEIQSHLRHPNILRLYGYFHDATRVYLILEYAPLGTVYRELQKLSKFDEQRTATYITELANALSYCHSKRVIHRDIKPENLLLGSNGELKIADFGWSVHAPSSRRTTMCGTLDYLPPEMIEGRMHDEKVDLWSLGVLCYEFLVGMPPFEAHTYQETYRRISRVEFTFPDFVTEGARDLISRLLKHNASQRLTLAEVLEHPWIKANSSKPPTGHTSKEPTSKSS
Briefly: murine Aurora Kinase 2 (mAur2) biochemical Scintillation Proximity Assay. The note with it: SPA, biotinylated Peptide 830, 1 μM ATP, 20 nM His-tagged mAur2. The protocol: as §1

T1 sequence (O70126 67-345): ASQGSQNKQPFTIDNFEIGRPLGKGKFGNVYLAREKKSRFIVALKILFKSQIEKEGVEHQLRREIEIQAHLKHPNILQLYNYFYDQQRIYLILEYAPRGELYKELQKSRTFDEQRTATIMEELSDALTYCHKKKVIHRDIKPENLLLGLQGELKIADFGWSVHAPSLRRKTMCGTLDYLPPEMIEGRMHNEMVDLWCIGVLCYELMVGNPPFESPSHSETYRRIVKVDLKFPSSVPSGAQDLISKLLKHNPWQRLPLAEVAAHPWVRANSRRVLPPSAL
T1 sequence (Q9NQS7 704-918 partner): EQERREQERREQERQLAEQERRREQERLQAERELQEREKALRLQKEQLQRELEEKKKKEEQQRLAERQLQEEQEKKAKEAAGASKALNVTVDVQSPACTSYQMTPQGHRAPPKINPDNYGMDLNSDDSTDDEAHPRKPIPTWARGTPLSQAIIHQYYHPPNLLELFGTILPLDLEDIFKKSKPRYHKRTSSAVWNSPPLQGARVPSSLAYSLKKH

By IC50 is commonly meant the concentration that inhibits the measured activity by half. Read a low IC50 as greater potency in that assay. Turning to `Nc1ncnn2cc(C(=O)NCC(F)(F)F)c(-c3ccc(Nc4nc5ccccc5[nH]4)cc3)c12` [Example 1, 4-amino-5-[4-(1H-benzimidazol-2-ylamino)phenyl]-N-(2,2,2-trifluoroethyl)pyrrolo[2,1-f][1,2,4]triazine-6-carboxamide], the IC50 in experiment [1] and in experiment [2] was below 100 nM each time.
Consider `Nc1ncnn2cc(C(=O)NCC(F)(F)F)c(-c3ccc(Nc4nc5cc(F)cc(F)c5[nH]4)cc3)c12` [Example 6, 4-amino-5-{4-[(5,7-difluoro-1H-benzimidazol-2-yl)amino]phenyl}-N-(2,2,2-trifluoroethyl)pyrrolo[2,1-f][1,2,4]triazine-6-carboxamide], for which the IC50 in experiment [1] and in experiment [2] was below 100 nM each time.
`COc1ccc2nc(Nc3ccc(-c4c(C(=O)NCC(F)(F)F)cn5ncnc(N)c45)cc3)[nH]c2c1` [Example 8, 4-amino-5-{4-[(6-methoxy-1H-benzimidazol-2-yl)amino]phenyl}-N-(2,2,2-trifluoroethyl)pyrrolo[2,1-f][1,2,4]triazine-6-carboxamide]: the IC50 in experiment [1] and in experiment [2] was below 100 nM each time.
In the case of `Nc1ncnn2cc(C(=O)NCC(F)(F)F)c(-c3ccc(Nc4nc5ccc(Br)cc5[nH]4)cc3)c12` [Example 9, 4-amino-5-{4-[(6-bromo-1H-benzimidazol-2-yl)amino]phenyl}-N-(2,2,2-trifluoroethyl)pyrrolo[2,1-f][1,2,4]triazine-6-carboxamide], the IC50 in experiment [1] and in experiment [2] was below 100 nM each time.
For the compound `Nc1ncnn2cc(C(=O)NCC(F)(F)F)c(-c3ccc(Nc4nc5cc(F)c(F)cc5[nH]4)cc3)c12` [Example 14, 4-amino-5-{4-[(5,6-difluoro-1H-benzimidazol-2-yl)amino]phenyl}-N-(2,2,2-trifluoroethyl)pyrrolo[2,1-f][1,2,4]triazine-6-carboxamide], the concentration for half-maximal inhibition (IC50) in experiment [1] and in experiment [2] was below 100 nM each time.
`Nc1ncnn2cc(C(=O)NCC(F)(F)F)c(-c3ccc(Nc4nc5cscc5[nH]4)cc3)c12` [Example 16, 4-amino-5-[4-(1H-thieno[3,4-d]imidazol-2-ylamino)phenyl]-N-(2,2,2-trifluoroethyl)pyrrolo[2,1-f][1,2,4]triazine-6-carboxamide]: the IC50 in experiment [1] and in experiment [2] was below 100 nM each time.
Consider `Cc1cccc2nc(Nc3ccc(-c4c(C(=O)NCC(F)(F)F)cn5ncnc(N)c45)cc3)[nH]c12` [Example 22, 4-amino-5-{4-[(7-methyl-1H-benzimidazol-2-yl)amino]phenyl}-N-(2,2,2-trifluoroethyl)pyrrolo[2,1-f][1,2,4]triazine-6-carboxamide], for which the IC50 in experiment [1] and in experiment [2] was below 100 nM each time.
`Nc1ncnn2cc(C(=O)NCC(F)(F)F)c(-c3ccc(Nc4nc5ccc([N+](=O)[O-])cc5[nH]4)cc3)c12` [Example 23, 4-amino-5-{4-[(6-nitro-1H-benzimidazol-2-yl)amino]phenyl}-N-(2,2,2-trifluoroethyl)pyrrolo[2,1-f][1,2,4]triazine-6-carboxamide]: the IC50 in experiment [1] and in experiment [2] was below 100 nM each time.
For `Nc1ncnn2cc(C(=O)NCC(F)(F)F)c(-c3ccc(Nc4nc5cc(I)cnc5[nH]4)cc3)c12` [Example 25, 4-amino-5-{4-[(6-iodo-3H-imidazo[4,5-b]pyridin-2-yl)amino]phenyl}-N-(2,2,2-trifluoroethyl)pyrrolo[2,1-f][1,2,4]triazine-6-carboxamide], the half-maximal inhibitory concentration (IC50) in experiment [1] and in experiment [2] was below 100 nM in each case.
`Nc1ncnn2cc(C(=O)NCC(F)(F)F)c(-c3ccc(Nc4nc5ccc(Cl)nc5[nH]4)cc3)c12` [Example 26, 4-amino-5-{4-[(5-chloro-3H-imidazo[4,5-b]pyridin-2-yl)amino]phenyl}-N-(2,2,2-trifluoroethyl)pyrrolo[2,1-f][1,2,4]triazine-6-carboxamide]: the IC50 in experiment [1] and in experiment [2] was below 100 nM in each case.
On to `Nc1ncnn2cc(C(=O)NCC(F)(F)F)c(-c3ccc(Nc4nc5ccc(Oc6ccccc6F)c(F)c5[nH]4)cc3)c12` [Example 39, 4-amino-5-(4-{[7-fluoro-6-(2-fluorophenoxy)-1H-benzimidazol-2-yl]amino}phenyl)-N-(2,2,2-trifluoroethyl)pyrrolo[2,1-f][1,2,4]triazine-6-carboxamide], for which the IC50 in experiment [1] and in experiment [2] was below 100 nM each time.
Take `Nc1ncnn2cc(C(=O)NCC(F)(F)F)c(-c3ccc(Nc4nc5ccc(Oc6cccc(F)c6)c(F)c5[nH]4)cc3)c12` [Example 40, 4-amino-5-(4-{[7-fluoro-6-(3-fluorophenoxy)-1H-benzimidazol-2-yl]amino}phenyl)-N-(2,2,2-trifluoroethyl)pyrrolo[2,1-f][1,2,4]triazine-6-carboxamide]: the IC50 in experiment [1] and in experiment [2] was below 100 nM each time.
For the compound `Cc1cccc(Oc2ccc3nc(Nc4ccc(-c5c(C(=O)NCC(F)(F)F)cn6ncnc(N)c56)cc4)[nH]c3c2F)c1` [Example 42, 4-amino-5-(4-{[7-fluoro-6-(3-methylphenoxy)-1H-benzimidazol-2-yl]amino}phenyl)-N-(2,2,2-trifluoroethyl)pyrrolo[2,1-f][1,2,4]triazine-6-carboxamide], the IC50 in experiment [1] and in experiment [2] was below 100 nM each time.
For the compound `Cc1ncnc2[nH]c(Nc3ccc(-c4c(C(=O)NCC(F)(F)F)cn5ncnc(N)c45)cc3)nc12` [Example 45, 4-amino-5-{4-[(6-methyl-9H-purin-8-yl)amino]phenyl}-N-(2,2,2-trifluoroethyl)pyrrolo[2,1-f][1,2,4]triazine-6-carboxamide], the IC50 in experiment [1] and in experiment [2] was below 100 nM in each case.
As to `Nc1ncnn2cc(C(=O)NCC(F)(F)F)c(-c3ccc(Nc4nc5ccc(NC6CCCCC6)nc5[nH]4)cc3)c12` [Example 48, 4-amino-5-(4-{[5-(cyclohexylamino)-3H-imidazo[4,5-b]pyridin-2-yl]amino}phenyl)-N-(2,2,2-trifluoroethyl)pyrrolo[2,1-f][1,2,4]triazine-6-carboxamide], the IC50 in experiment [1] and in experiment [2] was below 100 nM each time.
In the case of `Cc1ccc(Oc2ccc3nc(Nc4ccc(-c5c(C(=O)NCC(F)(F)F)cn6ncnc(N)c56)cc4)[nH]c3n2)cc1C` [Example 49, 4-amino-5-(4-{[5-(3,4-dimethylphenoxy)-3H-imidazo[4,5-b]pyridin-2-yl]amino}phenyl)-N-(2,2,2-trifluoroethyl)pyrrolo[2,1-f][1,2,4]triazine-6-carboxamide], the IC50 in experiment [1] and in experiment [2] was below 100 nM throughout.
Take `Nc1ncnn2cc(C(=O)NCC(F)(F)F)c(-c3ccc(Nc4nc5ccc(Sc6cccc(F)c6)nc5[nH]4)cc3)c12` [Example 50, 4-amino-5-[4-({5-[(3-fluorophenyl)thio]-3H-imidazo[4,5-b]pyridin-2-yl}amino)phenyl]-N-(2,2,2-trifluoroethyl)pyrrolo[2,1-f][1,2,4]triazine-6-carboxamide]: the IC50 in experiment [1] and in experiment [2] was below 100 nM in each case.
Take `CCCNc1ccc2nc(Nc3ccc(-c4c(C(=O)NCC(F)(F)F)cn5ncnc(N)c45)cc3)[nH]c2n1` [Example 55, 4-amino-5-(4-{[5-(propylamino)-3H-imidazo[4,5-b]pyridin-2-yl]amino}phenyl)-N-(2,2,2-trifluoroethyl)pyrrolo[2,1-f][1,2,4]triazine-6-carboxamide]: the IC50 in experiment [1] and in experiment [2] was below 100 nM throughout.
